Starred links: 1 amine or outer side, 2 acyl side, 3 side chain; linkers in the order of their positions; H or OH if unused. Positions of bridges follow the written chain, without caps; N, C: chain ends. Non-standard residues stand in square brackets, D forms with d. Residues, ends and D or L forms follow the SMILES beside them. *: point of attachment. NH(1-deoxy-D-glucityl) = OC[C@@H](O)[C@@H](O)[C@H](O)[C@@H](O)CN*; DOTA = O=C(O)CN1CCN(CC(=O)O)CCN(CC(=O)*)CCN(CC(=O)O)CC1; mXylylene = c1cc(C[*:1])cc(C[*:2])c1; Orn(Me2) = CN(C)CCC[C@H](N)C(=O)O; X2 = O=C(CN1CCC(N[*:1])CC1)[*:2]; αMeL = CC(C)C[C@](C)(N)C(=O)O; Pen = CC(C)(S)[C@H](N)C(=O)O; NMeS = CN[C@@H](CO)C(=O)O; Orn = NCCC[C@H](N)C(=O)O; Dab = NCC[C@H](N)C(=O)O; Thp = NC1(C(=O)O)CCOCC1

This assay concerns the target T1, CAIX-expressing human HT-29 colorectal cancer cells (Homo sapiens, UniProt Q16790).
T1 construct: CAIX-expressing human HT-29 colorectal cancer cells; host or cells: HT-29 human colorectal cancer cells
As to the kind of experiment: FACS binding assay (IC50 determination, competition with tracer 3BP-2776 or 3BP-4149). Particulars: FACS binding assay, HT-29 cells, competition with tracer 3BP-2776 (10 nM, biotin-labeled), 4° C., 1 hour; read-out: pIC50 category (activity) (converted). In short, it runs like this: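 HT-29 cells in FACS buffer (PBS, 1% FCS) at 500.000 cells/ml were exposed to compounds competing with a labelled tracer, with biotinylated compounds detected by 1 μg/mL APC-streptavidin for 30 min on ice. APC/Cy5 median fluorescence was read by flow cytometry and IC50 derived by 4PL fit.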
(In general: A flow cytometer gives signals particle by particle.)
In the case of `CC(=O)N[C@H](C(=O)N[C@@H](Cc1ccc(O)cc1)C(=O)N[C@H]1CSCc2cccc(c2)CSC[C@@H](C(N)=O)NC(=O)[C@H](CO)NC(=O)[C@H](Cc2c[nH]c3ccccc23)NC(=O)[C@@H]2CCC(=O)NCCCC[C@H](NC(=O)[C@H]3CCCN3C(=O)[C@H](CCC(=O)O)NC1=O)C(=O)N[C@@H](Cc1c[nH]c3ccccc13)C(=O)NC1(CCOCC1)C(=O)N2)C(C)C` [3BP-3962] (Ac-VYCE[dP]KW[Thp]EWSC-NH2; linker 3-12 via mXylylene; lactam 6-9), the IC50 was 100 to 794 nM. The result for `CC(=O)N[C@H](C(=O)N[C@@H](Cc1ccc(O)cc1)C(=O)N[C@H]1CSCc2cccc(c2)CSC(C)(C)[C@@H](C(N)=O)NC(=O)[C@H](CO)NC(=O)[C@H](Cc2c[nH]c3ccccc23)NC(=O)[C@@H]2CCC(=O)NCCCC[C@H](NC(=O)[C@H]3CCCN3C(=O)[C@H](CCC(=O)O)NC1=O)C(=O)N[C@@H](Cc1c[nH]c3ccccc13)C(=O)N[C@@H](CC(C)C)C(=O)N2)C(C)C` [3BP-3963] (Ac-VYCE[dP]KWLEWS[Pen]-NH2; linker 3-12 via mXylylene; lactam 6-9) reads < 10 nM; that for `CC(=O)N[C@H](C(=O)N[C@@H](Cc1ccc(O)cc1)C(=O)N[C@H]1CSCc2cccc(c2)CSC[C@@H](C(N)=O)NC(=O)[C@H](CO)NC(=O)[C@H](Cc2c[nH]c3ccccc23)NC(=O)[C@@H]2CC(=O)NCCC[C@H](NC(=O)[C@H]3CCCN3C(=O)[C@H](CCC(=O)O)NC1=O)C(=O)N[C@@H](Cc1c[nH]c3ccccc13)C(=O)N[C@@H](CC(C)C)C(=O)N2)C(C)C` [3BP-4005] (Ac-VYCE[dP][Orn]WLDWSC-NH2; linker 3-12 via mXylylene; lactam 6-9), < 10 nM. The result for `CC(=O)N[C@H](C(=O)N[C@@H](Cc1ccc(O)cc1)C(=O)N[C@H]1CSCc2cccc(c2)CSC[C@@H](C(N)=O)NC(=O)[C@H](CO)NC(=O)[C@H](Cc2c[nH]c3ccccc23)NC(=O)[C@H]2CC(=O)NCCCC[C@H](NC(=O)[C@H]3CCCN3C(=O)[C@H](CCC(=O)O)NC1=O)C(=O)N[C@@H](Cc1c[nH]c3ccccc13)C(=O)N[C@@H](CC(C)C)C(=O)N2)C(C)C` [3BP-4043] (Ac-VYCE[dP]KWL[dD]WSC-NH2; linker 3-12 via mXylylene; lactam 6-9) reads 100 to 794 nM; that for `CC(=O)N[C@H](C(=O)N[C@@H](Cc1ccc(O)cc1)C(=O)N[C@H]1CSCc2cccc(c2)CSC[C@@H](C(N)=O)NC(=O)[C@H](CO)NC(=O)[C@H](Cc2c[nH]c3ccccc23)NC(=O)[C@@H]2CC(=O)NCCCC[C@H](NC(=O)[C@H]3CCCN3C(=O)[C@H](CCC(=O)O)NC1=O)C(=O)N[C@@H](Cc1c[nH]c3ccccc13)C(=O)N[C@@H](CC(C)C)C(=O)N2)C(C)C` [3BP-4046] (Ac-VYCE[dP]KWLDWSC-NH2; linker 3-12 via mXylylene; lactam 6-9), 10 to 79.4 nM. For the compound `CC(=O)N[C@H](C(=O)N[C@@H](Cc1ccc(O)cc1)C(=O)N[C@H]1CSCc2cccc(c2)CSC[C@@H](C(N)=O)NC(=O)[C@H](CO)NC(=O)[C@H](Cc2c[nH]c3ccccc23)NC(=O)[C@@H]2CC(=O)NCC[C@H](NC(=O)[C@H]3CCCN3C(=O)[C@H](CCC(=O)O)NC1=O)C(=O)N[C@@H](Cc1c[nH]c3ccccc13)C(=O)N[C@@H](CC(C)C)C(=O)N2)C(C)C` [3BP-4050] (Ac-VYCE[dP][Dab]WLDWSC-NH2; linker 3-12 via mXylylene; lactam 6-9), the IC50 was 100 to 794 nM. The result for `CC(C)C[C@@H]1NC(=O)[C@H](Cc2c[nH]c3ccccc23)NC(=O)[C@H](CCCN(C)C)NC(=O)[C@H]2CCCN2C(=O)[C@H](CCC(=O)O)NC(=O)[C@@H](NC(=O)[C@H](Cc2ccc(O)cc2)NC(=O)[C@@H](NC(=O)CN2CCC(NC(=O)CN3CCN(CC(=O)O)CCN(CC(=O)O)CCN(CC(=O)O)CC3)CC2)C(C)C)CSCc2cccc(c2)CSC[C@@H](C(N)=O)NC(=O)[C@H](CO)NC(=O)[C@H](Cc2c[nH]c3ccccc23)NC(=O)[C@H]([C@@H](C)O)NC1=O` [3BP-4098] ({DOTA}-[X2]VYCE[dP][Orn(Me2)]WLTWSC-NH2; linker 4-13 via mXylylene) reads 10 to 79.4 nM; that for `CC(C)C[C@@H]1NC(=O)[C@H](Cc2c[nH]c3ccccc23)NC(=O)[C@H](CC(=O)O)NC(=O)[C@H]2CCCN2C(=O)[C@H](CCC(=O)O)NC(=O)[C@@H](NC(=O)[C@H](Cc2ccc(O)cc2)NC(=O)[C@@H](NC(=O)CN2CCC(NC(=O)CN3CCN(CC(=O)O)CCN(CC(=O)O)CCN(CC(=O)O)CC3)CC2)C(C)C)CSCc2cccc(c2)CSC[C@@H](C(N)=O)NC(=O)[C@H](CO)NC(=O)[C@H](Cc2c[nH]c3ccccc23)NC(=O)[C@H](CCCN(C)C)NC1=O` [3BP-4099] ({DOTA}-[X2]VYCE[dP]DWL[Orn(Me2)]WSC-NH2; linker 4-13 via mXylylene), < 10 nM. The result for `CC(C)C[C@@H]1NC(=O)[C@H](Cc2c[nH]c3ccccc23)NC(=O)[C@H](CC(=O)O)NC(=O)[C@H]2CCCN2C(=O)[C@H](CCC(=O)O)NC(=O)[C@@H](NC(=O)[C@H](Cc2ccc(O)cc2)NC(=O)[C@@H](NC(=O)CN2CCC(NC(=O)CN3CCN(CC(=O)O)CCN(CC(=O)O)CCN(CC(=O)O)CC3)CC2)C(C)C)CSCc2cccc(c2)CSC[C@@H](C(N)=O)NC(=O)[C@H](CCCN(C)C)NC(=O)[C@H](Cc2c[nH]c3ccccc23)NC(=O)[C@H]([C@@H](C)O)NC1=O` [3BP-4100] ({DOTA}-[X2]VYCE[dP]DWLTW[Orn(Me2)]C-NH2; linker 4-13 via mXylylene) reads < 10 nM; that for `CC(C)C[C@]1(C)NC(=O)[C@H](Cc2c[nH]c3ccccc23)NC(=O)[C@H](CC(=O)O)NC(=O)[C@H]2CCCN2C(=O)[C@H](CCC(=O)O)NC(=O)[C@@H](NC(=O)[C@H](Cc2ccc(O)cc2)NC(=O)[C@@H](NC(=O)CN2CCC(NC(=O)CN3CCN(CC(=O)O)CCN(CC(=O)O)CCN(CC(=O)O)CC3)CC2)C(C)C)CSCc2cccc(c2)CSC[C@@H](C(N)=O)NC(=O)[C@H](CO)NC(=O)[C@H](Cc2c[nH]c3ccccc23)NC(=O)[C@H]([C@@H](C)O)NC1=O` [3BP-4106] ({DOTA}-[X2]VYCE[dP]DW[αMeL]TWSC-NH2; linker 4-13 via mXylylene), 10 to 79.4 nM. For `CC(C)C[C@@H]1NC(=O)[C@H](Cc2c[nH]c3ccccc23)NC(=O)[C@H](CC(=O)O)NC(=O)[C@H]2CCCN2C(=O)[C@H](CO)N(C)C(=O)[C@@H](NC(=O)[C@H](Cc2ccc(O)cc2)NC(=O)[C@@H](NC(=O)CN2CCC(NC(=O)CN3CCN(CC(=O)O)CCN(CC(=O)O)CCN(CC(=O)O)CC3)CC2)C(C)C)CSCc2cccc(c2)CSC[C@@H](C(N)=O)NC(=O)[C@H](CO)NC(=O)[C@H](Cc2c[nH]c3ccccc23)NC(=O)[C@H]([C@@H](C)O)NC1=O` [3BP-4108] ({DOTA}-[X2]VYC[NMeS][dP]DWLTWSC-NH2; linker 4-13 via mXylylene), the IC50 was < 10 nM. For the compound `CC(C)C[C@@H]1NC(=O)[C@H](Cc2c[nH]c3ccccc23)NC(=O)[C@H](CC(=O)O)NC(=O)[C@H]2CCCN2C(=O)[C@H](CCC(=O)NC[C@H](O)[C@@H](O)[C@H](O)[C@H](O)CO)NC(=O)[C@@H](NC(=O)[C@H](Cc2ccc(O)cc2)NC(=O)[C@@H](NC(=O)CN2CCC(NC(=O)CN3CCN(CC(=O)O)CCN(CC(=O)O)CCN(CC(=O)O)CC3)CC2)C(C)C)CSCc2cccc(c2)CSC[C@@H](C(N)=O)NC(=O)[C@H](CO)NC(=O)[C@H](Cc2c[nH]c3ccccc23)NC(=O)[C@H]([C@@H](C)O)NC1=O` [3BP-4113] ({DOTA}-[X2]VYCE(NH(1-deoxy-D-glucityl))[dP]DWLTWSC-NH2; linker 4-13 via mXylylene), the IC50 is < 10 nM.

In the case of `CC(C)C[C@@H]1NC(=O)[C@H](Cc2c[nH]c3ccccc23)NC(=O)[C@H](CC(=O)O)NC(=O)[C@H]2CCCCNC(=O)CC[C@H](NC1=O)C(=O)N[C@@H](Cc1c[nH]c3ccccc13)C(=O)N[C@@H](CO)C(=O)N[C@H](C(N)=O)CSCc1cccc(c1)CSC[C@H](NC(=O)[C@H](Cc1ccc(O)cc1)NC(=O)[C@@H](NC(=O)CN1CCC(NC(=O)CN3CCN(CC(=O)O)CCN(CC(=O)O)CCN(CC(=O)O)CC3)CC1)C(C)C)C(=O)N[C@@H](CCC(=O)O)C(=O)N2` [3BP-4114] ({DOTA}-[X2]VYCE[dK]DWLEWSC-NH2; linker 4-13 via mXylylene; lactam 6-10), the IC50 was 10 to 79.4 nM. As for `CC(C)C[C@@H]1NC(=O)[C@H](Cc2c[nH]c3ccccc23)NC(=O)[C@H](CO)NC(=O)[C@H]2CCCCNC(=O)CC[C@H](NC1=O)C(=O)N[C@@H](Cc1c[nH]c3ccccc13)C(=O)N[C@@H](CO)C(=O)N[C@H](C(N)=O)CSCc1cccc(c1)CSC[C@H](NC(=O)[C@H](Cc1ccc(O)cc1)NC(=O)[C@@H](NC(=O)CN1CCC(NC(=O)CN3CCN(CC(=O)O)CCN(CC(=O)O)CCN(CC(=O)O)CC3)CC1)C(C)C)C(=O)N[C@@H](CCC(=O)O)C(=O)N2` [3BP-4115] ({DOTA}-[X2]VYCE[dK]SWLEWSC-NH2; linker 4-13 via mXylylene; lactam 6-10), the IC50 is 10 to 79.4 nM. For the compound `CC(C)C[C@@H]1NC(=O)[C@H](Cc2c[nH]c3ccccc23)NC(=O)[C@H](CCC(=O)NC[C@H](O)[C@@H](O)[C@H](O)[C@H](O)CO)NC(=O)[C@H]2CCCN2C(=O)[C@H](CCC(=O)O)NC(=O)[C@@H](NC(=O)[C@H](Cc2ccc(O)cc2)NC(=O)[C@@H](NC(=O)CN2CCC(NC(=O)CN3CCN(CC(=O)O)CCN(CC(=O)O)CCN(CC(=O)O)CC3)CC2)C(C)C)CSCc2cccc(c2)CSC[C@@H](C(N)=O)NC(=O)[C@H](CO)NC(=O)[C@H](Cc2c[nH]c3ccccc23)NC(=O)[C@H]([C@@H](C)O)NC1=O` [3BP-4120, DOTA-APAc-Val-Tyr-[Cys(3MeBn)-Glu-pro-Glu(AGLU)-Trp-Leu-Thr-Trp-Ser-Cys]-NH2] ({DOTA}-[X2]VYCE[dP]E(NH(1-deoxy-D-glucityl))WLTWSC-NH2; linker 4-13 via mXylylene), the IC50 is 10 to 79.4 nM.

For the origin of these results see US20250339569A1, “CARBONIC ANHYDRASE IX LIGANDS” (priority 2021, published 2025).
